Experimental data taken from US10597388B2, “Pyridazinone herbicides” (FMC CORPORATION, priority 2014, dated 2020).
Like-named read-outs stand apart in the source and are kept apart here.

How the values were obtained:
Type in all cases: in vivo
[1] = system: LOLMU, Italian Ryegrass (Lolium multiflorum); experiment: Test F mixtures with commercial herbicides, Post- or Pre-emergence
Outline: (§1)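 Sandy Loam, seeded; pre-/post-emerg. spray, non-phytotoxic solvent, g a.i./ha. GH ~16 h light, day 24-30, night 19-21° C., fertilized via watering. Read: visual % control d20 vs untreated. Exp. via Colby.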

[2] = system: KCHSC, kochia (Kochia scoparia); experiment: as above
Outline: as §1

[3] = system: ECHCG, barnyardgrass (Echinochloa crus-galli); experiment: as above
Outline: as §1

[4] = system: AMARE, redroot pigweed (Amaranthus retroflexus); experiment: as above
Outline: as §1

[5] = system: ALOMY, blackgrass (Alopecurus myosuroides); experiment: as above; conditions: Post-emergence, scale 0-100
Outline: as §1

[6] = system: AMBEL, common ragweed (Ambrosia elatior); experiment: as above
Outline: as §1

[7] = system: GALAP, galium (Galium aparine); experiment: as above; conditions: Post-emergence, scale 0-100
Outline: as §1

[8] = system: SETVI, giant foxtail (Setaria faberii); experiment: as above
Outline: as §1

[9] = system: velvetleaf (Abutilon theophrasti); experiment: Test A greenhouse herbicide test, pre- and postemergence; conditions: 240 h; for pest or weed control at 1000 g/ha: 1000 g ai/ha; for pest or weed control at 1000 g/ha / pest or weed control at 500 g/ha: 0 to 100 scale; for pest or weed control at 125 g/ha: 125 g ai/ha; for pest or weed control at 500 g/ha: 500 g ai/ha
Outline: (§2)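 Visual injury ratings, 0 (no effect) to 100 (complete control), versus untreated plants after roughly 10 d in a greenhouse. Compounds, formulated in a surfactant-containing non-phytotoxic solvent, were sprayed on loam–sand soil after sowing (pre) or on one- to two-leaf plants 2–10 cm tall (post).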

[10] = system: momingglory (Ipomoea spp.); experiment: as above; conditions: 240 h; for pest or weed control at 1000 g/ha: 1000 g ai/ha; for pest or weed control at 1000 g/ha / pest or weed control at 500 g/ha: 0 to 100 scale; for pest or weed control at 125 g/ha: 125 g ai/ha; for pest or weed control at 500 g/ha: 500 g ai/ha
Outline: as §2

[11] = system: crabgrass, large (large crabgrass, Digitaria sanguinalis); experiment: as above; conditions: 240 h; for pest or weed control at 1000 g/ha: 1000 g ai/ha; for pest or weed control at 1000 g/ha / pest or weed control at 500 g/ha: 0 to 100 scale; for pest or weed control at 125 g/ha: 125 g ai/ha; for pest or weed control at 500 g/ha: 500 g ai/ha
Outline: as §2

[12] = Post-emergence, Rate 16 g a.i./ha, scale 0-100
[13] = Post-emergence, Rate 62 g a.i./ha, scale 0-100
[14] = Pre-emergence, Rate 16 g a.i./ha, applied alone, 20 d, scale 0 to 100
[15] = Pre-emergence, Rate 62 g a.i./ha, applied alone, 20 d, scale 0 to 100
[16] = post-emergence, Postemergence, 0 is no effect, 100 is complete control, read-out: Velvetleaf plant response rating
[17] = pre-emergence, Preemergence, 0 no effect, 100 complete control, read-out: Plant response rating, Velvetleaf
[18] = post-emergence, Postemergence, 0 is no effect, 100 is complete control, read-out: Morningglory plant response rating
[19] = pre-emergence, Preemergence, 0 no effect, 100 complete control, read-out: Plant response rating, Morningglory
[20] = post-emergence, Postemergence, 0 is no effect, 100 is complete control, read-out: Crabgrass, Large plant response rating
[21] = pre-emergence, Preemergence, 0 no effect, 100 complete control, read-out: Plant response rating, Crabgrass, Large

SMILES: Cc1ccc2sc(C)c(-c3c(O)c(C)nn(C)c3=O)c2c1 [Compound 1, 4-(2,5-dimethylbenzo[b]thien-3-yl)-5-hydroxy-2,6-dimethyl-3(2H)-pyridazinone]
- LOLMU Obsd. [1, 12]: 65.0
- LOLMU Obsd. [1, 13]: 100.0
- LOLMU Obsd. [1, 14]: 65
- LOLMU Obsd. [1, 15]: 100
- KCHSC Obsd. [2, 12]: 60.0
- KCHSC Obsd. [2, 13]: 100.0
- KCHSC Obsd. [2, 14]: 0
- KCHSC Obsd. [2, 15]: 25
- ECHCG Obsd. [3, 12]: 0.0
- ECHCG Obsd. [3, 13]: 0.0
- ECHCG Obsd. [3, 14]: 0
- ECHCG Obsd. [3, 15]: 20
- AMARE Obsd. [4, 12]: 30.0
- AMARE Obsd. [4, 13]: 100.0
- AMARE Obsd. [4, 14]: 20
- AMARE Obsd. [4, 15]: 90
- ALOMY Obsd. ([5]; Rate 16 g a.i./ha): 0.0
- ALOMY Obsd. ([5]; Rate 62 g a.i./ha): 35.0
- AMBEL Obsd. [6, 12]: 95.0
- AMBEL Obsd. [6, 13]: 100.0
- AMBEL Obsd. [6, 14]: 65
- AMBEL Obsd. [6, 15]: 90
- GALAP Obsd. ([7]; Rate 16 g a.i./ha): 65.0
- GALAP Obsd. ([7]; Rate 62 g a.i./ha): 100.0
- SETVI Obsd. [8, 12]: 0.0
- SETVI Obsd. [8, 13]: 40.0
- SETVI Obsd. [8, 14]: 0
- SETVI Obsd. [8, 15]: 60
- pest or weed control at 1000 g/ha [9, 16]: 100%
- pest or weed control at 1000 g/ha [9, 17]: 100%
- pest or weed control at 1000 g/ha [10, 18]: 100%
- pest or weed control at 1000 g/ha [10, 19]: 90%
- pest or weed control at 1000 g/ha [11, 20]: 90%
- pest or weed control at 1000 g/ha [11, 21]: 90%

SMILES: Cc1nn(C)c(=O)c(-c2c(C)oc3c(C)cccc23)c1O [Compound 9, 4-(2,7-dimethyl-3-benzofuranyl)-5-hydroxy-2,6-dimethyl-3(2H)-pyridazinone]
- pest or weed control at 125 g/ha ([9]; post-emergence, Postemergence, visual rating after approx. 10 d, 0 to 100 scale (0 no effect, 100 complete control), read-out: Plant response rating, Velvetleaf): 0%
- pest or weed control at 500 g/ha [9, 16]: 10%
- pest or weed control at 125 g/ha ([9]; pre-emergence, Preemergence, 0 to 100 scale where 0 is no effect and 100 is complete control, read-out: Velvetleaf plant response rating): 0%
- pest or weed control at 500 g/ha [9, 17]: 0%
- pest or weed control at 125 g/ha ([10]; post-emergence, Postemergence, visual rating after approx. 10 d, 0 to 100 scale (0 no effect, 100 complete control), read-out: Plant response rating, Morningglory): 40%
- pest or weed control at 500 g/ha [10, 18]: 80%
- pest or weed control at 125 g/ha ([10]; pre-emergence, Preemergence, 0 to 100 scale where 0 is no effect and 100 is complete control, read-out: Morningglory plant response rating): 0%
- pest or weed control at 500 g/ha [10, 19]: 0%
- pest or weed control at 125 g/ha ([11]; post-emergence, Postemergence, visual rating after approx. 10 d, 0 to 100 scale (0 no effect, 100 complete control), read-out: Plant response rating, Crabgrass, Large): 10%
- pest or weed control at 500 g/ha [11, 20]: 50%
- pest or weed control at 125 g/ha ([11]; pre-emergence, Preemergence, 0 to 100 scale where 0 is no effect and 100 is complete control, read-out: Crabgrass, Large plant response rating): 20%
- pest or weed control at 500 g/ha [11, 21]: 90%
